Measured values reported in patent US20190152957A1, “PYRIDIN-3-YL ACETIC ACID DERIVATIVES AS INHIBITORS OF HUMAN IMMUNODEFICIENCY VIRUS REPLICATION” (ViiV HEALTHCARE UK (NO.5) LIMITED, priority 2016, published 2019).

Each compound was assayed on recombinant NL-RLuc virus (HIV NL4-3 with Renilla Luciferase gene) in MT-2 cells (assay: Inhibition of HIV replication (NL-RLuc virus, luciferase readout in MT-2 cells)). Settings: MT2, 120 h, read-out: Activity.
Assay type: cell-based
Text: Inhibition of HIV Replication:
A recombinant NL-RLuc proviral clone was constructed in which a section of the nef gene from NL4-3 was replaced with the Renilla Luciferase gene. This virus is fully infectious and can undergo multiple cycles of replication in cell culture. In addition, the luciferous reporter provides a simple and easy method for quantitating the extent of virus growth and consequently, the antiviral activity of test compounds. The plasmid pNLRLuc contains the proviral NL-Rluc DNA cloned into pUC18 at the PvuII site. The NL-RLuc virus was prepared by transfection of 293T cells with the plasmid pNLRLuc. Transfections were performed using the LipofectAMINE PLUS kit from Invitrogen (Carlsbad, Calif.) according to the manufacturer and the virus generated was titered in MT-2 cells. For susceptibility analyses, the titrated virus was used to infect MT-2 cells in the presence of compound, and after 5 days of incubation, cells were processed and quantitated for virus growth by the amount of expressed luciferase. Assay media was RPMI 1640 supplemented with 10% heat inactivated fetal bovine serum (FBS), 100 units/ml penicillin G/100 units/ml streptomycin, 10 mM HEPES buffer pH 7.55 and 2 mM L-glutamine. The results from at least 2 experiments were used to calculate the EC50 values. Luciferase was quantitated using the Dual Luciferase kit from Promega (Madison, Wis.). Susceptibility of viruses to compounds was determined by incubation in the presence of serial dilutions of the compound. The 50% effective concentration (EC50) was calculated by using the exponential form of the median effect equation where (Fa)=1/[1+(ED50/drug conc.)^m](Johnson V A, Byington R T. Infectivity Assay. In Techniques in HIV Research. ed. Aldovini A, Walker BD. 71-76. New York: Stockton Press. 1990). Activity equal to A refers to a compound having an EC50≤100 nM, while B and C denote compounds having an EC50 between 100 nM and 1 uM (B) or >1 uM (C).

SMILES	EC50 [µM]
COc1cccc(CN2CCc3cc(-c4c(C)nc(C)c([C@H](OC(C)(C)C)C(=O)O)c4N4CCC(C)(C)CC4)ccc3C2)n1 [Compound 30, (S)-2-(tert-butoxy)-2-(4-(4,4-dimethylpiperidin-1-yl)-5-(2-((6-methoxypyridin-2-yl)methyl)-1,2,3,4-tetrahydroisoquinolin-6-yl)-2,6-dimethylpyridin-3-yl)acetic acid]	< 0.1
COc1cc(CN2CCc3cc(-c4c(C)nc(C)c([C@H](OC(C)(C)C)C(=O)O)c4N4CCC(C)(C)CC4)ccc3C2)ccn1 [Compound 31, (S)-2-(tert-butoxy)-2-(4-(4,4-dimethylpiperidin-1-yl)-5-(2-((2-methoxypyridin-4-yl)methyl)-1,2,3,4-tetrahydroisoquinolin-6-yl)-2,6-dimethylpyridin-3-yl)acetic acid]	< 0.1
Cc1nc(C)c([C@H](OC(C)(C)C)C(=O)O)c(N2CCC(C)(C)CC2)c1-c1ccc2c(c1)CCN(Cc1ccc(Cl)nc1Cl)C2 [Compound 32, (S)-2-(tert-butoxy)-2-(5-(2-((2,6-dichloropyridin-3-yl)methyl)-1,2,3,4-tetrahydroisoquinolin-6-yl)-4-(4,4-dimethylpiperidin-1-yl)-2,6-dimethylpyridin-3-yl)acetic acid]	< 0.1
COc1ncc(CN2CCc3cc(-c4c(C)nc(C)c([C@H](OC(C)(C)C)C(=O)O)c4N4CCC(C)(C)CC4)ccc3C2)cn1 [Compound 33, (S)-2-(tert-butoxy)-2-(4-(4,4-dimethylpiperidin-1-yl)-5-(2-((2-methoxypyrimidin-5-yl)methyl)-1,2,3,4-tetrahydroisoquinolin-6-yl)-2,6-dimethylpyridin-3-yl)acetic acid]	< 0.1
Cc1nc(C)c([C@H](OC(C)(C)C)C(=O)O)c(N2CCC(C)(C)CC2)c1-c1ccc2c(c1)CCN(Cc1ccc(C(F)(F)F)nc1)C2 [Compound 34, (S)-2-(tert-butoxy)-2-(4-(4,4-dimethylpiperidin-1-yl)-2,6-dimethyl-5-(2-((6-(trifluoromethyl)pyridin-3-yl)methyl)-1,2,3,4-tetrahydroisoquinolin-6-yl)pyridin-3-yl)acetic acid]	< 0.1
COc1ncccc1CN1CCc2cc(-c3c(C)nc(C)c([C@H](OC(C)(C)C)C(=O)O)c3N3CCC(C)(C)CC3)ccc2C1 [Compound 35, (S)-2-(tert-butoxy)-2-(4-(4,4-dimethylpiperidin-1-yl)-5-(2-((2-methoxypyridin-3-yl)methyl)-1,2,3,4-tetrahydroisoquinolin-6-yl)-2,6-dimethylpyridin-3-yl)acetic acid]	< 0.1
Cc1nc(C)c([C@H](OC(C)(C)C)C(=O)O)c(N2CCC(C)(C)CC2)c1-c1ccc2c(c1)CCN(Cc1cccnn1)C2 [Compound 36, (S)-2-(tert-butoxy)-2-(4-(4,4-dimethylpiperidin-1-yl)-2,6-dimethyl-5-(2-(pyridazin-3-ylmethyl)-1,2,3,4-tetrahydroisoquinolin-6-yl)pyridin-3-yl)acetic acid]	< 0.1
Cc1nc(C)c([C@H](OC(C)(C)C)C(=O)O)c(N2CCC(C)(C)CC2)c1-c1ccc2c(c1)CCN(Cc1ncco1)C2 [Compound 37, (S)-2-(tert-butoxy)-2-(4-(4,4-dimethylpiperidin-1-yl)-2,6-dimethyl-5-(2-(oxazol-2-ylmethyl)-1,2,3,4-tetrahydroisoquinolin-6-yl)pyridin-3-yl)acetic acid]	< 0.1
Cc1nc(C)c([C@H](OC(C)(C)C)C(=O)O)c(N2CCC(C)(C)CC2)c1-c1ccc2c(c1)CCN(Cc1nccn1C)C2 [Compound 38, (S)-2-(tert-butoxy)-2-(4-(4,4-dimethylpiperidin-1-yl)-2,6-dimethyl-5-(2-((1-methyl-1H-imidazol-2-yl)methyl)-1,2,3,4-tetrahydroisoquinolin-6-yl)pyridin-3-yl)acetic acid]	< 0.1
Cc1nc[nH]c1CN1CCc2cc(-c3c(C)nc(C)c([C@H](OC(C)(C)C)C(=O)O)c3N3CCC(C)(C)CC3)ccc2C1 [Compound 39, (S)-2-(tert-butoxy)-2-(4-(4,4-dimethylpiperidin-1-yl)-2,6-dimethyl-5-(2-((4-methyl-1H-imidazol-5-yl)methyl)-1,2,3,4-tetrahydroisoquinolin-6-yl)pyridin-3-yl)acetic acid]	0.1 to 1
Cc1nc(C)c([C@H](OC(C)(C)C)C(=O)O)c(N2CCC(C)(C)CC2)c1-c1ccc2c(c1)CCN(Cc1c[nH]cn1)C2 [Compound 40, (S)-2-(5-(2-((1H-imidazol-4-yl)methyl)-1,2,3,4-tetrahydroisoquinolin-6-yl)-4-(4,4-dimethylpiperidin-1-yl)-2,6-dimethylpyridin-3-yl)-2-(tert-butoxy)acetic acid]	> 1
Cc1cccc(-n2cc(CN3CCc4cc(-c5c(C)nc(C)c([C@H](OC(C)(C)C)C(=O)O)c5N5CCC(C)(C)CC5)ccc4C3)cn2)c1 [Compound 41, (S)-2-(tert-butoxy)-2-(4-(4,4-dimethylpiperidin-1-yl)-2,6-dimethyl-5-(2-((1-(m-tolyl)-1H-pyrazol-4-yl)methyl)-1,2,3,4-tetrahydroisoquinolin-6-yl)pyridin-3-yl)acetic acid]	< 0.1
Cc1cc(CN2CCc3cc(-c4c(C)nc(C)c([C@H](OC(C)(C)C)C(=O)O)c4N4CCC(C)(C)CC4)ccc3C2)[nH]n1 [Compound 42, (S)-2-(tert-butoxy)-2-(4-(4,4-dimethylpiperidin-1-yl)-2,6-dimethyl-5-(2-((3-methyl-1H-pyrazol-5-yl)methyl)-1,2,3,4-tetrahydroisoquinolin-6-yl)pyridin-3-yl)acetic acid]	< 0.1
Cc1nc(CN2CCc3cc(-c4c(C)nc(C)c([C@H](OC(C)(C)C)C(=O)O)c4N4CCC(C)(C)CC4)ccc3C2)c[nH]1 [Compound 43, (S)-2-(tert-butoxy)-2-(4-(4,4-dimethylpiperidin-1-yl)-2,6-dimethyl-5-(2-((2-methyl-1H-imidazol-4-yl)methyl)-1,2,3,4-tetrahydroisoquinolin-6-yl)pyridin-3-yl)acetic acid]	< 0.1
CCn1cc(CN2CCc3cc(-c4c(C)nc(C)c([C@H](OC(C)(C)C)C(=O)O)c4N4CCC(C)(C)CC4)ccc3C2)cn1 [Compound 44, (S)-2-(tert-butoxy)-2-(4-(4,4-dimethylpiperidin-1-yl)-5-(2-((1-ethyl-1H-pyrazol-4-yl)methyl)-1,2,3,4-tetrahydroisoquinolin-6-yl)-2,6-dimethylpyridin-3-yl)acetic acid]	< 0.1
Cc1nc(C)c([C@H](OC(C)(C)C)C(=O)O)c(N2CCC(C)(C)CC2)c1-c1ccc2c(c1)CCN(Cc1cccnc1OC(C)C)C2 [Compound 45, (S)-2-(tert-butoxy)-2-(4-(4,4-dimethylpiperidin-1-yl)-5-(2-((2-isopropoxypyridin-3-yl)methyl)-1,2,3,4-tetrahydroisoquinolin-6-yl)-2,6-dimethylpyridin-3-yl)acetic acid]	< 0.1
Cc1nc(C)c([C@H](OC(C)(C)C)C(=O)O)c(N2CCC(C)(C)CC2)c1-c1ccc2c(c1)CCN(Cc1nnn[nH]1)C2 [Compound 46, (S)-2-(5-(2-((1H-tetrazol-5-yl)methyl)-1,2,3,4-tetrahydroisoquinolin-6-yl)-4-(4,4-dimethylpiperidin-1-yl)-2,6-dimethylpyridin-3-yl)-2-(tert-butoxy)acetic acid]	< 0.1
COc1ccc(CN2CCc3cc(-c4c(C)nc(C)c([C@H](OC(C)(C)C)C(=O)O)c4N4CCC(C)(C)CC4)ccc3C2)cn1 [Compound 47, (S)-2-(tert-butoxy)-2-(4-(4,4-dimethylpiperidin-1-yl)-5-(2-((6-methoxypyridin-3-yl)methyl)-1,2,3,4-tetrahydroisoquinolin-6-yl)-2,6-dimethylpyridin-3-yl)acetic acid]	< 0.1
COc1ncc(CN2CCc3cc(-c4c(C)nc(C)c([C@H](OC(C)(C)C)C(=O)O)c4N4CCC(C)(C)CC4)ccc3C2)c(OC)n1 [Compound 48, (S)-2-(tert-butoxy)-2-(5-(2-((2,4-dimethoxypyrimidin-5-yl)methyl)-1,2,3,4-tetrahydroisoquinolin-6-yl)-4-(4,4-dimethylpiperidin-1-yl)-2,6-dimethylpyridin-3-yl)acetic acid]	< 0.1
COc1ccc(CN2CCc3cc(-c4c(C)nc(C)c([C@H](OC(C)(C)C)C(=O)O)c4N4CCC(C)(C)CC4)ccc3C2)c(OC)n1 [Compound 49, (S)-2-(tert-butoxy)-2-(5-(2-((2,6-dimethoxypyridin-3-yl)methyl)-1,2,3,4-tetrahydroisoquinolin-6-yl)-4-(4,4-dimethylpiperidin-1-yl)-2,6-dimethylpyridin-3-yl)acetic acid]	< 0.1
Cc1nc(C)c([C@H](OC(C)(C)C)C(=O)O)c(N2CCC(C)(C)CC2)c1-c1ccc2c(c1)CCN(Cc1cn[nH]c1)C2 [Compound 50, (S)-2-(5-(2-((1H-pyrazol-4-yl)methyl)-1,2,3,4-tetrahydroisoquinolin-6-yl)-4-(4,4-dimethylpiperidin-1-yl)-2,6-dimethylpyridin-3-yl)-2-(tert-butoxy)acetic acid]	< 0.1

Same assay, conditions: MT2, 120 h, read-out: EC50 μM

SMILES	EC50 [µM]
COc1ncc(CN2CCc3cc(-c4c(C)nc(C)c([C@H](OC(C)(C)C)C(=O)O)c4N4CCC(C)(C)CC4)ccc3C2)cn1 [Compound 33, (S)-2-(tert-butoxy)-2-(4-(4,4-dimethylpiperidin-1-yl)-5-(2-((2-methoxypyrimidin-5-yl)methyl)-1,2,3,4-tetrahydroisoquinolin-6-yl)-2,6-dimethylpyridin-3-yl)acetic acid]	0.008
Cc1nc[nH]c1CN1CCc2cc(-c3c(C)nc(C)c([C@H](OC(C)(C)C)C(=O)O)c3N3CCC(C)(C)CC3)ccc2C1 [Compound 39, (S)-2-(tert-butoxy)-2-(4-(4,4-dimethylpiperidin-1-yl)-2,6-dimethyl-5-(2-((4-methyl-1H-imidazol-5-yl)methyl)-1,2,3,4-tetrahydroisoquinolin-6-yl)pyridin-3-yl)acetic acid]	0.231
COc1ccc(CN2CCc3cc(-c4c(C)nc(C)c([C@H](OC(C)(C)C)C(=O)O)c4N4CCC(C)(C)CC4)ccc3C2)cn1 [Compound 47, (S)-2-(tert-butoxy)-2-(4-(4,4-dimethylpiperidin-1-yl)-5-(2-((6-methoxypyridin-3-yl)methyl)-1,2,3,4-tetrahydroisoquinolin-6-yl)-2,6-dimethylpyridin-3-yl)acetic acid]	0.002
